In patent publication US9902725B2, “Heterocyclic derivatives as RORgamma modulators” (GENFIT, priority 2014, dated 2018):
pIC50: −log10 of the molar value.

Experiments:
human RORγt = target: T1, human RORγt (Homo sapiens, UniProt P51449); experiment: IL-17 secretion from EL4 murine lymphoma overexpressing human RORγt; format: cell-based; set-up: expressed in transfected cells; host or cells: EL-4 murine lymphoma; details: IL-17 secretion inhibition, PMA and ionomycin stimulation, 24 h
T1 sequence (P51449 1-497 isoform P51449-2): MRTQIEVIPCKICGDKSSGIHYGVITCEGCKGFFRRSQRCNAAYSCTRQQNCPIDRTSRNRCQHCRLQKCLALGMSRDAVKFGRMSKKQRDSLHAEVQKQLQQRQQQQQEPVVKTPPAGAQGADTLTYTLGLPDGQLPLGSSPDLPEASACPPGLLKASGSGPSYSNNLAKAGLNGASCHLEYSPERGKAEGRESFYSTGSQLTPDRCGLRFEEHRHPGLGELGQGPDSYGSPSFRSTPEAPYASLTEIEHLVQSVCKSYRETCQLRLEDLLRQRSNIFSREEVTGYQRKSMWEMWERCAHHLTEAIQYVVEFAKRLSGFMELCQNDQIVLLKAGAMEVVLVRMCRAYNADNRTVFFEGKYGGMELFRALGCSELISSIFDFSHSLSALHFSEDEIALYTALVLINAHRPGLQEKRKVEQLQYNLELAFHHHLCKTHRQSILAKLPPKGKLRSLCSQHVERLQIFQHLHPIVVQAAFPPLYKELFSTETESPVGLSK
Description: Murine EL-4 lymphoma cell line overexpressing human RORγt was used in this functional assay to assess compound ability to inhibit IL-17 cytokine secretion.
EL-4 cells are maintained in a standard culture medium RPMI supplemented with 10% fetal calf serum, 1% sodium pyruvate, 1% essential amino acids and 1% antibiotics at 37° C. in a humidified atmosphere of 5% CO2 and 95% air. Culture medium was changed every 2 days. EL4 cells were transfected with a plasmid encoding hRORγt (sequence identical to published sequence NM 001001523). […] Briefly, 1 μg of DNA/1 million cells was served to transfect EL-4 cells. Cell/DNA suspension was transferred into certified cuvette and the electroporation of RORγt plasmid was carried out using appropriate Nucleofector® program.
Cells were seeded in 96 well plates at a density of 150000 cells/well then treated with compounds of this invention at indicated concentrations and incubated for 24 hours at 37° C. in a humidified atmosphere of 5% CO2 and 95% air. EL-4 cells were pretreated with test compounds (RORγ modulators) and stimulated with PMA (10 ng/mL) and ionomycin (1 μM final concentration) in the presence of test compound concentrations for additional 24 h at 37° C. in a humidified atmosphere of 5% CO2 and 95% air. Subsequently, supernatants were collected (after centrifugation at 300 g for 10 minutes) to determine the concentrations of IL-17 by HTRF (CisBio, France) or ELISA (R&D Systems Europe) according to the manufacturer's protocols.

[1] = target: T2, RORγt ligand-binding domain (RORγt-LBD) (Homo sapiens, UniProt P51449); experiment: Time-resolved FRET (TR-FRET) RORγt coactivator assay; format: biochemical; details: GST-RORγ-LBD, biotinylated RIP140 peptide, coactivator displacement
T2 construct: 20 nM recombinantly expressed RORγ-LBD fused to GST
T2 sequence (P51449 269-508 limits assumed): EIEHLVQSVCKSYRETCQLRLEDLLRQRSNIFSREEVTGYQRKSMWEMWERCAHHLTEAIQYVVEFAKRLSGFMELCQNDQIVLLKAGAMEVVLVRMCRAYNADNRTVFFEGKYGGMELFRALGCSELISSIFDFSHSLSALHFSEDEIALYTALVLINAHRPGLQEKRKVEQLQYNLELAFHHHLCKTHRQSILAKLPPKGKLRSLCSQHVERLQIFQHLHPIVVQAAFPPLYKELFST

pIC50 (human RORγt) | pIC50 [1] | SMILES
5.00 to 6.00 | > 6.00 | Cc1ccc(C(NC(=O)Cc2ccc3[nH]cc(CCC(=O)OC(C)(C)C)c3c2)c2ccccc2)c(OC(C)C)c1 (stereo not drawn) [Cpd. 145, tert-butyl 3-{5-[({[4-methyl-2-(propan-2-yloxy)phenyl](phenyl)methyl}carbamoyl)methyl]-1H-indol-3-yl}propanoate]
5.00 to 6.00 | > 6.00 | CCOC(=O)CCc1n[nH]c2ccc(CC(=O)NC(c3ccccc3)c3ccc(C)cc3OC(C)C)cc12 (stereo not drawn) [Cpd. 159, ethyl 3-{5-[({[4-methyl-2-(propan-2-yloxy)phenyl](phenyl)methyl}carbamoyl)methyl]-1H-indazol-3-yl}propanoate]
5.00 to 6.00 | > 6.00 | CCOC(=O)CCCc1c[nH]c2ccc(CC(=O)NC(c3ccccc3)c3ccccc3N3CCCCC3)cc12 (stereo not drawn) [Cpd. 211, ethyl 4-{5-[({phenyl[2-(piperidin-1-yl)phenyl]methyl}carbamoyl)methyl]-1H-indol-3-yl}butanoate]
5.00 to 6.00 | > 6.00 | Cc1ccc(C(NC(=O)Cc2ccc3[nH]cc(CC(=O)O)c3c2)c2ccccc2)c(N2CCCC2)c1 (stereo not drawn) [compound 65, 2-{5-[({[4-methyl-2-(pyrrolidin-1-yl)phenyl](phenyl)methyl}carbamoyl)methyl]-1H-indol-3-yl}acetic acid]
5.00 to 6.00 | > 6.00 | Cc1ccc(C(NC(=O)Cc2ccc3[nH]cc(CC(=O)N(C)C)c3c2)c2ccccc2)c(N2CCOCC2)c1 (stereo not drawn) [compound 112, N,N-dimethyl-2-{5-[({[4-methyl-2-(morpholin-4-yl)phenyl](phenyl)methyl}carbamoyl)methyl]-1H-indol-3-yl}acetamide]
5.00 to 6.00 | > 6.00 | Cc1ccc(N2CCCCC2)c(C(NC(=O)Cc2ccc3[nH]cc(CCC(=O)O)c3c2)c2ccccc2)c1 (stereo not drawn) [compound 114, 3-{5-[({[5-methyl-2-(piperidin-1-yl)phenyl](phenyl)methyl}carbamoyl)methyl]-1H-indol-3-yl}propanoic acid]
5.00 to 6.00 | > 6.00 | CCNc1cc(C)ccc1C(NC(=O)Cc1ccc2[nH]cc(CCC(=O)O)c2c1)c1ccccc1 (stereo not drawn) [compound 120, 3-{5-[({[2-(ethylamino)-4-methylphenyl](phenyl)methyl}carbamoyl)methyl]-1H-indol-3-yl}propanoic acid]
5.00 to 6.00 | > 6.00 | Cc1ccc(C(NC(=O)Cc2ccc3[nH]cc(CCC(=O)O)c3c2)c2ccccc2)c(NC(C)C)c1 (stereo not drawn) [compound 126, 3-(5-{[({4-methyl-2-[(propan-2-yl)amino]phenyl}(phenyl)methyl)carbamoyl]methyl}-1H-indol-3-yl)propanoic acid]
5.00 to 6.00 | > 6.00 | Cc1ccc(C(NC(=O)Cc2ccc3[nH]cc(CCC(=O)O)c3c2)c2ccccc2)c(OC(C)C)c1 (stereo not drawn) [compound 146, 3-{5-[({[4-methyl-2-(propan-2-yloxy)phenyl](phenyl)methyl}carbamoyl)methyl]-1H-indol-3-yl}propanoic acid]

Further lines, the compound ahead of its results:

SMILES | pIC50 (human RORγt) | pIC50 [1]
COc1ccc(C(NC(=O)Cc2ccc3[nH]cc(CCC(=O)OC(C)(C)C)c3c2)c2ccccc2)c(N2CCCCCC2)c1 (stereo not drawn) [Cpd. 141, tert-butyl 3-{5-[({[2-(azepan-1-yl)-4-methoxyphenyl](phenyl)methyl}carbamoyl)methyl]-1H-indol-3-yl}propanoate] | 5.00 to 6.00 | > 6.00
CCOC(=O)CCCCc1c[nH]c2ccc(CC(=O)NC(c3ccccc3)c3ccccc3N3CCCCC3)cc12 (stereo not drawn) [Cpd. 216, ethyl 5-{5-[({phenyl[2-(piperidin-1-yl)phenyl]methyl}carbamoyl)methyl]-1H-indol-3-yl}pentanoate] | 5.00 to 6.00 | > 6.00
CC(C)(C)OC(=O)CCc1c[nH]c2ccc(NC(=O)NC(c3ccccc3)c3ccccc3N3CCCCC3)cc12 (stereo not drawn) [compound 55, tert-butyl 3-{5-[({phenyl[2-(piperidin-1-yl)phenyl]methyl}carbamoyl)amino]-1H-indol-3-yl}propanoate] | 5.00 to 6.00 | 4.52 to 5.00
O=C(O)CCc1c[nH]c2ccc(CC(=O)NC(c3ccccc3)c3cc(Cl)ccc3N3CCCCC3)cc12 (stereo not drawn) [compound 62, 3-{5-[({[5-chloro-2-(piperidin-1-yl)phenyl](phenyl)methyl}carbamoyl)methyl]-1H-indol-3-yl}propanoic acid] | 5.00 to 6.00 | > 6.00
Cc1ccc(C(NC(=O)Cc2ccc3[nH]cc(CC(=O)O)c3c2)c2ccccc2)c(N2CCCCC2)c1 (stereo not drawn) [compound 87, 2-{5-[({[4-methyl-2-(piperidin-1-yl)phenyl](phenyl)methyl}carbamoyl)methyl]-1H-indol-3-yl}acetic acid] | 5.00 to 6.00 | > 6.00
O=C(O)CCc1c[nH]c2ccc(CC(=O)NC(c3ccccc3)c3ccc(Cl)cc3N3CCCC3)cc12 (stereo not drawn) [compound 91, 3-{5-[({[4-chloro-2-(pyrrolidin-1-yl)phenyl](phenyl)methyl}carbamoyl)methyl]-1H-indol-3-yl}propanoic acid] | 5.00 to 6.00 | > 6.00
CC(C)CC(NC(=O)Cc1ccc2[nH]cc(CCC(=O)O)c2c1)c1cccc2ccccc12 (stereo not drawn) [compound 105, 3-[5-({[3-methyl-1-(naphthalen-1-yl)butyl]carbamoyl}methyl)-1H-indol-3-yl]propanoic acid] | 5.00 to 6.00 | > 6.00
COc1ccc(C(NC(=O)Cc2ccc3[nH]cc(CCC(=O)O)c3c2)c2ccccc2)c(N2CCCC2)c1 (stereo not drawn) [compound 109, 3-{5-[({[4-methoxy-2-(pyrrolidin-1-yl)phenyl](phenyl)methyl}carbamoyl)methyl]-1H-indol-3-yl}propanoic acid] | 5.00 to 6.00 | > 6.00
CNC(=O)CCc1c[nH]c2ccc(CC(=O)NC(c3ccccc3)c3ccccc3N3CCCCC3)cc12 (stereo not drawn) [compound 115, N-methyl-3-{5-[({phenyl[2-(piperidin-1-yl)phenyl]methyl}carbamoyl)methyl]-1H-indol-3-yl}propanamide] | 5.00 to 6.00 | > 6.00
O=C(O)CCc1c[nH]c2ccc(CC(=O)NC(c3ccccc3)c3cc(Br)ccc3N3CCCC3)cc12 (stereo not drawn) [compound 117, 3-{5-[({[5-bromo-2-(pyrrolidin-1-yl)phenyl](phenyl)methyl}carbamoyl)methyl]-1H-indol-3-yl}propanoic acid] | 4.52 to 5.00 | > 6.00
COc1ccc(N2CCCCC2)c(C(NC(=O)Cc2ccc3[nH]cc(CCC(=O)O)c3c2)c2ccccc2)c1 (stereo not drawn) [compound 136, 3-{5-[({[5-methoxy-2-(piperidin-1-yl)phenyl](phenyl)methyl}carbamoyl)methyl]-1H-indol-3-yl}propanoic acid] | 5.00 to 6.00 | > 6.00
Cc1ccc(C(NC(=O)Cc2ccc3[nH]cc(CCC(=O)O)c3c2)c2ccc(C)s2)c(N2CCCCC2)c1 (stereo not drawn) [compound 138, 3-{5-[({[4-methyl-2-(piperidin-1-yl)phenyl](5-methylthiophen-2-yl)methyl}carbamoyl)methyl]-1H-indol-3-yl}propanoic acid] | 5.00 to 6.00 | > 6.00
Cc1ccc(C(NC(=O)Cc2ccc3[nH]cc(CCC(=O)O)c3c2)c2nccs2)c(N2CCCCC2)c1 (stereo not drawn) [compound 140, 3-{5-[({[4-methyl-2-(piperidin-1-yl)phenyl](1,3-thiazol-2-yl)methyl}carbamoyl)methyl]-1H-indol-3-yl}propanoic acid] | 5.00 to 6.00 | > 6.00
COc1ccc(C(NC(=O)Cc2ccc3[nH]cc(CCC(=O)O)c3c2)c2ccccc2)c(N2CCCCCC2)c1 (stereo not drawn) [compound 142, 3-{5-[({[2-(azepan-1-yl)-4-methoxyphenyl](phenyl)methyl}carbamoyl)methyl]-1H-indol-3-yl}propanoic acid] | 5.00 to 6.00 | > 6.00
O=C(O)CCc1c[nH]c2ccc(CC(=O)NC3(c4ccccc4N4CCCCC4)CCCCC3)cc12 [compound 144, 3-{5-[({1-[2-(piperidin-1-yl)phenyl]cyclohexyl}carbamoyl)methyl]-1H-indol-3-yl}propanoic acid] | 5.00 to 6.00 | > 6.00
